Test results reported in patent publication US4524070A, “Aminated derivatives of pyridazine substituted in 6 position by a heterocycle or an alicycle and compositions, said derivatives being active on the central nervous system” (Sanofi, priority 1983, dated 1985).

How the values were obtained:
[1] = tested on: central serotoninergic transmission; assay: Potentialization of the head twitches induced by 5-hydroxytryptophane (5-HTP test); format: in vivo, mouse (female CDI Charles River); settings: 1 hour before 5-hydroxytryptophane 200 mg/kg i.p., % with respect to control mice
Protocol: Potentialization of the head twitches induced by 5-hydroxytryptophane
The 5-hydroxytryptophane, precursor of the 5-hydroxytryptamine, induces in the mouse typical behaviour characterized by sudden head twitches.
At time zero, the product to be studied is administered by the intraperitoneal route then, 1 hour afterwards, a single dose (200 mg/kg) of 1-5-hydroxytryptophane in suspension in distilled water is in turn administered by the same route. Each animal (female CDI Charles River mouse weighing from 22 to 24 g) is immediately placed in a cylindrical glass beaker. The number of head twitches is counted for 20 minutes.
For each dose of the product to be tested, batches of 10 animals are experimented on, in comparison with a control batch which receives only the vehicle.
The results are expressed in % with respect to the average score obtained in the control mice.

[2] = target: cholinergic receptors of muscarinic type; format: binding; settings: rat cerebra without cerebellum, 0.05 nM QNB (^3 H), 25° C., 1 hour, pH 7.4; read-out: Bond with QNB (^3 H) IC50
dopaminergic activity = assay: Rotations test: behaviour of rotation after unilateral lesion of the striatum (dopaminergic activity); format: in vivo, mouse (female Charles River CDI); settings: 1 hour after administration, counted for 2 minutes
Protocol: This was studied by analysis of the behaviour of rotation in the mouse after unilateral lesion of the striatum (P. Protais et al., J. Pharmacol., 1976, 7, 251).
Female Charles River CDI mice weighing from 20 to 24 g were previously subjected to a unilateral lesion of the striatum by stereotaxic injection of 6-hydroxydopamine at the rate of 8 mcg per animal. One week after this operation, the products to be studied were administered by the intraperitoneal route to groups of 7 mice. 1 hour after administration of the product, the number of rotations is determined for a period of 2 minutes. The rotations ispilateral with respect to the lesion are counted positively and the contralateral rotations are counted negatively.
The algebraic sum of the rotations for a group of treated animals is compared with that of the group of control animals having received only the vehicle (physiological serum).
The results are expressed in % variation of the rotations of the treated animals with respect to the control animals.

monoamine oxydase A = target: T1, monoamine oxydase A (Rattus norvegicus, UniProt P21396); assay: Measurement of the MAO A activity in vitro; format: biochemical; settings: rat striatum, 14C 5-hydroxytryptamine 480 μM, pH 7.40, 10 minutes
T1 construct: using the striatum of rate as source of enzyme; from tissue; host or cells: rat striatum homogenate
T1 sequence (P21396 1-526): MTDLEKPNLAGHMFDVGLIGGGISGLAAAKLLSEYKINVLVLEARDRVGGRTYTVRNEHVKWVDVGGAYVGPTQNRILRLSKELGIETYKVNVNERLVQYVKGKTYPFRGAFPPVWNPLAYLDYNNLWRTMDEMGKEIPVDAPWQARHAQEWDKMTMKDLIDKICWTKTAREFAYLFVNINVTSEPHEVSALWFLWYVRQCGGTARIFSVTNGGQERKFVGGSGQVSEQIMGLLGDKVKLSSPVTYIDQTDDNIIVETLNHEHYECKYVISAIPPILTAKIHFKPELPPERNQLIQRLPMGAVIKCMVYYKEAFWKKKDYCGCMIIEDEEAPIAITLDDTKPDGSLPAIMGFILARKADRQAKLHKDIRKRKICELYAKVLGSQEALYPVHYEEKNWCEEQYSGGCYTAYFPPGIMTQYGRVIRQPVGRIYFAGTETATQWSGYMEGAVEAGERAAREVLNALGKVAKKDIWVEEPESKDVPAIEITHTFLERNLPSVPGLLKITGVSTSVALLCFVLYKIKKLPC
Protocol: Measurement of the MAO A activity in vitro
After dissection, the tissues are homogenized in 16 volumes (weight per volume) of iced phosphate buffer (0.1M, pH=7.40). […] The acid metabolites are extracted in 7 ml of a toluene/ethyl acetate (1:1, vol/vol) mixture then counted by liquid scintillation. The concentration of the product tested which inhibits the control activity by 50% (I.C.50) is determined graphically.

[3] = tested on: ptosis induced by reserpine; assay: Antagonism of ptosis induced by reserpine; format: in vivo, mouse (female CDI Charles River); settings: Mus musculus, ip, simultaneous with reserpine 2 mg/kg i.v.; read 1 hour after; batches of 10 mice
Protocol: Antagonism of ptosis induced by reserpine This test described by GOURET (Journal de Pharmacologie, Paris, 1973, 4 (1), 105-128) was carried out on the female CDI (Charles River) mouse weighing 20±1 g. Reserpine induces a ptosis 1 hour after its intravenous administration; certain antidepressants oppose this ptosis. The following protocol was chosen. The substances to be studied were administered i.p. The reserpine was administered simultaneously by the intravenous route at the dose of 2 mg/kg. 1 hour after administration of reserpine, the number of animals not presenting ptosis was noted. This test was carried out on batches of 10 mice and the percentage of animals not presenting ptosis was determined. The results are expressed in effective dose 50 (ED50) or dose preventing ptosis in 50% of the animals treated.

[4] = dose 10 mg/kg i.p., result in words

| Structure (SMILES) | 5-HTP test % variation ([1]; dose 8 mg/kg i.p., **p 0.01) | IC50 [2] | Rotations test % variation (dopaminergic activity; [4]) | MAO A Inhibition IC50 (monoamine oxydase A) | ED50 [3] | 5-HTP test % variation ([1]; dose 7.5 mg/kg i.p., *p 0.05) | 5-HTP test % variation ([1]; dose 10 mg/kg i.p., *p 0.05) | Rotations test % variation (dopaminergic activity; dose 0.5 mg/kg i.p., vs control animals, **p 0.01) |
| --- | --- | --- | --- | --- | --- | --- | --- | --- |
| Cc1cc(-c2cccs2)nnc1NCCN1CCOCC1.Cl.Cl [CM 30387, 3-morpholinoethylamino-4-methyl-6-(2-thienyl)pyridazine, dihydrochloride] | 632% | 24 µM | Inactive | 10 mg/kg | 4.8 mg/kg | – | – | – |
| Cc1cc(-c2ccsc2)nnc1NCCN1CCOCC1.Cl.Cl [CM 30388, 3-morpholinoethylamino-4-methyl-6-(3-thienyl)-pyridazine, dihydrochloride] | 647% | 18 µM | Inactive | 7.8 mg/kg | 10.3 mg/kg | – | – | – |
| Cc1cc(C2CCCCC2)nnc1NCCN1CCOCC1.Cl.Cl [CM 30390, 3-morpholinoethylamino-4-methyl-6-cyclohexyl-pyridazine; dihydrochloride] | – | 14 µM | Inactive | – | 4.5 mg/kg | 219% | – | – |
| Cc1cc(-c2ccccc2)nnc1NCCN1CCOCC1 [Minaprine, reference compound] | – | 100 µM | – | 16 mg/kg | 5 mg/kg | – | 257% | -79% |
